System: eczema
Assay: Treatment of eczema in a patient
Assay type: in vivo, human
Conditions: topical to the most gravely affected areas, before the composition
Description: A patient with eczema visited a pediatrician. […] The patient was prescribed desoximatasone for topical administration to the most gravely affected areas. […] Subsequently, the pediatrician provided the patient's parent with an amount of the exemplary composition as described in Example 3 in a suitable container-closure system, for daily administration to the patient.

C[C@@H]1C[C@H]2[C@@H]3CCC4=CC(=O)C=C[C@]4(C)[C@@]3(F)[C@@H](O)C[C@]2(C)[C@H]1C(=O)CO [desoximatasone]
results of topical treatment of eczema: not satisfactory

From patent US20180303777A1, “Hyaluronate Compositions” (Cypress Pharmaceuticals, Inc., priority 2007, published 2018)
